Among the data in patent publication US12479821B2 (MBD CO., LTD., priority 2019, dated 2025) are inhibition values, retold here.

Read-outs that look alike come from different tables or passages of the source.

This test concerns the target T1, CYP4A (Homo sapiens, UniProt Q02928).
T1 construct: host or cells: bactosome, i.e. bacterial membrane preparation (own knowledge of the term)
T1 sequence (Q02928 5-519): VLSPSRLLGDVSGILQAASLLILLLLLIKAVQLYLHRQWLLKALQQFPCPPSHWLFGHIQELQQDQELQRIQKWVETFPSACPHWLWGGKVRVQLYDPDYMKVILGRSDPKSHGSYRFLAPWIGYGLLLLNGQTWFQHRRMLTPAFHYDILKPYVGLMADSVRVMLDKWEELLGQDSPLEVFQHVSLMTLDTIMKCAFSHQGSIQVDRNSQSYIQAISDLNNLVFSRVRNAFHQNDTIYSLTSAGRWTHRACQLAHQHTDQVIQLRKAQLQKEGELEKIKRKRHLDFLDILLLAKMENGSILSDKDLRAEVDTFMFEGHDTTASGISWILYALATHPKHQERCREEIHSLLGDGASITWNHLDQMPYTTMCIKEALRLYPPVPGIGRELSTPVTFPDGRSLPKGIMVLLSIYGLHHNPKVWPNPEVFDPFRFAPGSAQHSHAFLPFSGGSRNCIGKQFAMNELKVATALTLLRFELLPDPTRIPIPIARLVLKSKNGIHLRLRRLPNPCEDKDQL
In words: CYP4A enzyme assay (Luciferin-ME luminescence, CYP4A bactosome). The format is biochemical. The conditions noted are these: compound concentration 5 μM. The essentials: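 CYP4A bactosome preincubated 15 min at room temperature with compound (5 μM) in 100 mM KPO4, 0.1% BSA, 1 mM DTT. Luciferin-ME (5 mM) plus NADPH regeneration system added, 30 min at room temperature, then detection reagent for 15 min. Inhibition derived from luminescence versus controls.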

The mark [1] stands for this setting: '50%-75%', read-out: % Inhibition 50%-75%.
Setting [2] is: 75% or more, read-out: % Inhibition 75% or more.
[3] abbreviates: 25%-50%, read-out: % Inhibition 25%-50%.

By inhibition is commonly meant how much of the control response was suppressed. Turning to `O=C(C1CCCN(S(=O)(=O)c2ccc(Br)cc2)C1)N1CCN(c2ccnc3ccccc23)CC1` (stereo not shown) [Formula 85, (1-(4-bromophenylsulfonyl)piperidin-3-yl) (4-(quinolin-4-yl)piperazin-1-yl) methanone], the inhibition at 5 µM under setting [1] lay within 50 to 75%. On to `COc1cccc(S(=O)(=O)N2CCCC(C(=O)N3CCN(c4ccnc5ccccc45)CC3)C2)c1` (stereo not shown) [Formula 86, (1-(3-methoxyphenylsulfonyl)piperidin-3-yl) (4-(quinolin-4-yl)piperazin-1-yl) methanone], for which the inhibition at 5 µM under setting [2] is at least 75%. Turning to `COc1ccc2c(N3CCN(C(=O)C4CCCN(S(=O)(=O)c5ccc(NC(C)=O)cc5)C4)CC3)ccnc2c1` (stereo not shown) [Formula 87, N-(4-(3-(1-(7-methoxyquinolin-4-yl)piperazine-4-carbonyl)piperidin-1-ylsulfonyl)phenyl) acetamide], the inhibition at 5 µM under setting [1] came out at 0%. With `COc1ccc2c(N3CCN(C(=O)C4CCCN(S(=O)(=O)c5ccc(C)cc5)C4)CC3)ccnc2c1` (stereo not shown) [Formula 88, (4-(7-methoxyquinolin-4-yl)piperazin-1-yl) (1-tosylpiperidin-3-yl) methanone], the inhibition at 5 µM under setting [3] was 0%. For the compound `COc1ccc2c(N3CCN(C(=O)C4CCCN(S(=O)(=O)c5ccc(F)cc5)C4)CC3)ccnc2c1` (stereo not shown) [Formula 89, (1-(4-fluorophenylsulfonyl)piperidin-3-yl) (4-(7-methoxyquinolin-4-yl)piperazin-1-yl) methanone], under setting [1], the inhibition at 5 µM is 50 to 75%. For `COc1ccc2c(N3CCN(C(=O)C4CCCN(S(=O)(=O)c5ccc(N(C)C)cc5)C4)CC3)ccnc2c1` (stereo not shown) [Formula 90, (1-(4-(dimethylamino)phenylsulfonyl)piperidin-3-yl) (4-(7-methoxyquinolin-4-yl)piperazin-1-yl) methanone], the inhibition at 5 µM under setting [1] was in the range of 50 to 75%. The same measure, in the same setting: the result for `COc1ccc2c(N3CCN(C(=O)C4CCCN(S(=O)(=O)c5ccc(O)cc5)C4)CC3)ccnc2c1` (stereo not shown) [Formula 91, (1-(4-hydroxyphenylsulfonyl)piperidin-3-yl) (4-(7-methoxyquinolin-4-yl)piperazin-1-yl)methanone] reads 50 to 75%; that for `O=C(C1CCCN(S(=O)(=O)c2cccc(O)c2)C1)N1CCN(c2ccnc3cc(Cl)ccc23)CC1` (stereo not shown) [Formula 92, (4-(7-chloroquinolin-4-yl)piperazin-1-yl) (1-(3-hydroxyphenylsulfonyl)piperidin-3-yl) methanone], 50 to 75%. Same read-out and setting: with `Cc1cc(N2CCN(C(=O)C3CCCN(S(=O)(=O)c4cccc(O)c4)C3)CC2)c2ccccc2n1` (stereo not shown) [Formula 93, (1-(3-hydroxyphenylsulfonyl)piperidin-3-yl) (4-(2-methylquinolin-4-yl)piperazin-1-yl) methanone] the figure was 50 to 75%. With `O=C(C1CCCN(S(=O)(=O)c2cccc(O)c2)C1)N1CCN(c2ccnc3cc(F)ccc23)CC1` (stereo not shown) [Formula 94, (4-(7-fluoroquinolin-4-yl)piperazin-1-yl) (1-(3-hydroxyphenylsulfonyl)piperidin-3-yl) methanone], the inhibition at 5 µM under setting [2] is at least 75%. As to `O=C(C1CCCN(S(=O)(=O)c2cccc(O)c2)C1)N1CCN(c2ccnc3ccccc23)CC1` (stereo not shown) [Formula 95, (1-(3-hydroxyphenylsulfonyl)piperidin-3-yl) (4-(quinolin-4-yl)piperazin-1-yl) methanone], the inhibition at 5 µM under setting [2] was at least 75%. As to `Cc1cc(N2CCN(C(=O)C3CCCN(S(=O)(=O)c4ccc(N)cc4)C3)CC2)c2ccccc2n1` (stereo not shown) [Formula 96, (1-(4-aminophenylsulfonyl)piperidin-3-yl) (4-(2-methylquinolin-4-yl)piperazin-1-yl) methanone], the inhibition at 5 µM under setting [3] is 25 to 50%. With `Nc1ccc(S(=O)(=O)N2CCCC(C(=O)N3CCN(c4ccnc5ccccc45)CC3)C2)cc1` (stereo not shown) [Formula 97, (1-(4-aminophenylsulfonyl)piperidin-3-yl) (4-(quinolin-4-yl)piperazin-1-yl) methanone], the inhibition at 5 µM under setting [1] was 0%. With `O=C(O)c1ccc(S(=O)(=O)N2CCCC(C(=O)N3CCN(c4ccnc5cc(Cl)ccc45)CC3)C2)cc1` (stereo not shown) [Formula 98, 4-((3-(1-(7-chloroquinolin-4-yl)piperazine-1-carbonyl)piperidin-1-yl)sulfonyl)benzoic acid], under setting [3], the inhibition at 5 µM fell in the range of 25 to 50%.

As for `CN(C)C(=O)c1ccc(S(=O)(=O)N2CCCC(C(=O)N3CCN(c4ccnc5cc(Cl)ccc45)CC3)C2)cc1` (stereo not shown) [Formula 99, 4-(3-(1-(7-chloroquinolin-4-yl)piperazine-4-carbonyl)piperidin-1-ylsulfonyl)-N,N-dimethylbenzamide], the inhibition at 5 µM under setting [1] fell in the range of 50 to 75%. As to `Cc1cc(N2CCN(C(=O)C3CCCN(S(=O)(=O)c4ccc(C(=O)O)cc4)C3)CC2)c2ccccc2n1` (stereo not shown) [Formula 100, 4-(3-(1-(2-methylquinolin-4-yl)piperazine-4-carbonyl)piperidin-1-ylsulfonyl)benzoic acid], for the setting “mark in column '25% or less', read-out: % Inhibition 25% or less”, the inhibition at 5 µM is at most 25%. Turning to `Cc1cc(N2CCN(C(=O)C3CCCN(S(=O)(=O)c4ccc(C(=O)N(C)C)cc4)C3)CC2)c2ccccc2n1` (stereo not shown) [Formula 101, N,N-dimethyl-4-(3-(1-(2-methylquinolin-4-yl)piperazine-4-carbonyl)piperidin-1-ylsulfonyl)benzamide], the inhibition at 5 µM under setting [3] was in the range of 25 to 50%.

Regarding `Cc1cc(N2CCN(C(=O)C3CCCN(S(=O)(=O)c4ccc(-c5ccncc5)cc4)C3)CC2)c2ccccc2n1` (stereo not shown) [Formula 102, (4-(2-methylquinolin-4-yl)piperazin-1-yl) (1-((4-(pyridin-4-yl)phenyl)sulfonyl)piperidin-3-yl)methanone], under setting [2], the inhibition at 5 µM came to 0%. Regarding `Cc1cc(N2CCN(C(=O)C3CCCN(S(=O)(=O)c4ccc(-c5cncnc5)cc4)C3)CC2)c2ccccc2n1` (stereo not shown) [Formula 103, (4-(2-methylquinolin-4-yl)piperazin-1-yl) (1-((4-(pyrimidin-5-yl)phenyl)sulfonyl)piperidin-3-yl) methanone], the inhibition at 5 µM under setting [1] was 50 to 75%. Consider `Cc1cc(N2CCN(C(=O)C3CCCN(S(=O)(=O)c4ccc(-c5cnc(C)nc5)cc4)C3)CC2)c2ccccc2n1` (stereo not shown) [Formula 104, (1-((4-(2-methylpyrimidin-5-yl)phenyl)sulfonyl)piperidin-3-yl) (4-(2-methylquinolin-4-yl)piperazin-1-yl) methanone], for which, under setting [2], the inhibition at 5 µM turned out to be 0%. On the same count and under the same terms, the result for `Cc1cc(N2CCN(C(=O)C3CCCN(S(=O)(=O)c4ccc(-c5cccnc5)cc4)C3)CC2)c2ccccc2n1` (stereo not shown) [Formula 105, (4-(2-methylquinolin-4-yl)piperazin-1-yl) (1-((4-(pyridin-3-yl)phenyl)sulfonyl)piperidin-3-yl) methanone] reads 0%; that for `O=C(C1CCCN(S(=O)(=O)c2ccc(-c3ccncc3)cc2)C1)N1CCN(c2ccnc3cc(F)ccc23)CC1` (stereo not shown) [Formula 106, (4-(7-fluoroquinolin-4-yl)piperazin-1-yl) (1-(4-(pyridin-4-yl)phenylsulfonyl)piperidin-3-yl) methanone], 0%; that for `O=C([C@@H]1CCCN(S(=O)(=O)c2ccc(-c3ccncc3)cc2)C1)N1CCN(c2ccnc3cc(F)ccc23)CC1` [Formula 107, (R)-(4-(7-fluoroquinolin-4-yl)piperazin-1-yl) (1-(4-(pyridin-4-yl)phenylsulfonyl)piperidin-3-yl) methanone], at least 75%. Still for that read-out and setting: the result for `O=C(C1CCCN(S(=O)(=O)c2ccc(-c3cccnc3)cc2)C1)N1CCN(c2ccnc3cc(F)ccc23)CC1` (stereo not shown) [Formula 108, (4-(7-fluoroquinolin-4-yl)piperazin-1-yl) (1-(4-(pyridin-3-yl)phenylsulfonyl)piperidin-3-yl) methanone] reads at least 75%; that for `O=C(C1CCCN(S(=O)(=O)c2cccc(-c3ccncc3)c2)C1)N1CCN(c2ccnc3cc(F)ccc23)CC1` (stereo not shown) [Formula 109, (4-(7-fluoroquinolin-4-yl)piperazin-1-yl) (1-(3-(pyridin-4-yl)phenylsulfonyl)piperidin-3-yl) methanone], at least 75%; that for `O=C(C1CCCN(S(=O)(=O)c2cccc(-c3cccnc3)c2)C1)N1CCN(c2ccnc3cc(F)ccc23)CC1` (stereo not shown) [Formula 110, (4-(7-fluoroquinolin-4-yl)piperazin-1-yl) (1-(3-(pyridin-3-yl)phenylsulfonyl)piperidin-3-yl) methanone], at least 75%.

As for `O=C(C1CCCN(S(=O)(=O)c2ccc(-c3cncnc3)cc2)C1)N1CCN(c2ccnc3cc(F)ccc23)CC1` (stereo not shown) [Formula 111, (4-(7-fluoroquinolin-4-yl)piperazin-1-yl) (1-(4-(pyrimidin-5-yl)phenylsulfonyl)piperidin-3-yl) methanone], the inhibition at 5 µM under setting [2] was at least 75%. Still for that read-out and setting: with `O=C(C1CCCN(S(=O)(=O)c2cccc(-c3cncnc3)c2)C1)N1CCN(c2ccnc3cc(F)ccc23)CC1` (stereo not shown) [Formula 112, (4-(7-fluoroquinolin-4-yl)piperazin-1-yl) (1-(3-(pyrimidin-5-yl)phenylsulfonyl)piperidin-3-yl) methanone] the figure was at least 75%.
